Source: patent US20240400606A1, “SMALL MOLECULE ACTIVATORS OF THE IMMUNE SYSTEM” (THE BOARD OF TRUSTEES OF THE UNIVERSITY OF ILLINOIS, priority 2021, published 2024)

Columns and labels:
[1] = in vivo, ip
Protocol: Tolerability Studies. Three female C57/BL6 mice were administered single IP doses (formulated in 50% DMSO/50% Peg400) of compound (2). Compound was formulated at a concentration of 20-40 mg/mL depending on dose. Mice were injected with 100 μL formulated compound. Mouse weight and lethality were tracked as indicators of compound tolerability. Tolerability of vehicle had been previously assessed.
Maximum tolerated dose mouse studies: Compound (3) was formulated in 50% DMSO, 50% Peg400 at 20 mg/mL (for 100 mg/kg injection), 25 mg/mL (for 125 mg/kg injection), or 40 mg/mL (for 200 mg/kg injection). Compound was injected intraperitoneally into female C57BL/6 mice, and the mice were monitored for signs of toxicity.

[2] = tested on: STS and SULT2B1b levels in MCF-7; test: Western blot of STS and SULT2B1b after treatment, MCF-7; assay type: cell-based, human; settings: MCF-7, 6.25 μM, 72 hours
Protocol: Western Blot Analysis. Cells were lysed using RIPA buffer containing phosphatase (BioVision) and protease inhibitor cocktail (Calbiochem). Protein concentrations were determined using the BCA assay (Pierce). Lysates containing 15 μg of protein were loaded onto 4-20% gradient gels (BioRad), and SDS-PAGE was run. Proteins were then transferred onto membrane (PVDF Millipore) for Western Blot analysis. Blots were blocked with BSA solution (2 g in 40 mL TBST) for one hour followed by primary antibody addition and incubation overnight (using manufacturer's recommended dilutions). Following overnight incubation, blots were washed with TBST, and incubated with HRP-linked secondary antibody for 1 hour in TBST. Blots were washed, then imaged with ChemiDoc after incubation with SuperSignal West Pico Solution following manufacturer's procedures.

**Q.** With `C[C@]12CCC(=O)N(Cc3ccc(Br)cc3)C1=CC[C@@H]1[C@@H]2C(=O)C[C@]2(C)C(=O)CC[C@@H]12` [Compound 3, (4aR,4bS,6aS,9aS,9bS)-1-(4-bromobenzyl)-4a,6a-dimethyl-3,4,4a,6,6a,8,9,9a,9b,10-decahydro-1H-indeno[5,4-f]quinoline-2,5,7(4bH)-trione] as the compound, how does the tolerated dose ([1]; female, C57BL/6, mouse) read?
**A.** Its tolerated dose is “up to 200 mg/kg”.

**Q.** And the tolerability ([1]; mouse, 200 mg/kg)?
**A.** The tolerability was “not tolerated”.

**Q.** What about the “STS and SULT2B1b levels after treatment” value [2] of the same compound?
**A.** The value was “unchanged”.
